This passage reports Ki results from patent publication US7528138B2, “Pyrazolo[1,5-a]pyrimidines useful as inhibitors of protein kinases” (Vertex Pharmaceuticals Incorporated, priority 2004, dated 2009).

One assay has as its target T1, JAK3 (Homo sapiens, UniProt P52333).
T1 sequence (P52333 1-1124): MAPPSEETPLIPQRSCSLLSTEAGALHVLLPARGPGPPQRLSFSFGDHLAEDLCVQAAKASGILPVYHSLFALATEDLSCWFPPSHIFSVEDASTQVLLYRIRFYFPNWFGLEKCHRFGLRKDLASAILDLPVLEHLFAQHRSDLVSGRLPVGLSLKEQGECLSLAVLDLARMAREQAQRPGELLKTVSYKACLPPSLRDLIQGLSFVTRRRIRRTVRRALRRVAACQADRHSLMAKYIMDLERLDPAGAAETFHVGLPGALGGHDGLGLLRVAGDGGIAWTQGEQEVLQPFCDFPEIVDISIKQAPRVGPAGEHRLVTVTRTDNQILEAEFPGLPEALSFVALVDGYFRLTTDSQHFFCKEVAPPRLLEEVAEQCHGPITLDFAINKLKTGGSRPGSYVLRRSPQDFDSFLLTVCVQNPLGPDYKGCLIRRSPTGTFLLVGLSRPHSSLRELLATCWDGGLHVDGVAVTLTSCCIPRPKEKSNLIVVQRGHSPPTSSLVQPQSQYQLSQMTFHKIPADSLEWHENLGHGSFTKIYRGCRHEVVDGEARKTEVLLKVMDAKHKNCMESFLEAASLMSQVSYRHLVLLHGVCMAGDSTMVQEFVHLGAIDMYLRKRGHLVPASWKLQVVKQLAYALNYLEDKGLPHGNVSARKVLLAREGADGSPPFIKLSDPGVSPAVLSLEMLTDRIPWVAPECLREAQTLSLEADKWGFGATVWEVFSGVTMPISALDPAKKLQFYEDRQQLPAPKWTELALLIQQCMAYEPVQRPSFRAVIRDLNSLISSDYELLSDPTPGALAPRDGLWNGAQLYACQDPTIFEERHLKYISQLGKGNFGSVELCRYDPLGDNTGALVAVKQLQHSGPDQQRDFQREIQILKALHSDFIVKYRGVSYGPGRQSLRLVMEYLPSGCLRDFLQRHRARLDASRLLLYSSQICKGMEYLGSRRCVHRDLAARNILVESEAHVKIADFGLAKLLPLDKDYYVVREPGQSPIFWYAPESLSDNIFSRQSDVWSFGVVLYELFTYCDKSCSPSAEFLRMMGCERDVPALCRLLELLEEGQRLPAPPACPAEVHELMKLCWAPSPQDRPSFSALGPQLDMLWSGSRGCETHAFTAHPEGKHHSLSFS
The assay is described as follows: JAK3 Inhibition Assay, 33P incorporation. Particulars: enzyme inhibition data (Ki), Table 11. In kind it is biochemical. Put shortly:
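Recombinant JAK3 at 1 nM in HEPES pH 7.4 buffer with 10 mM MgCl2, 1 mM DTT and 0.01% BSA. Substrates were 5 μM ATP (200 uCi/μmole) and 1 μM poly(Glu)4Tyr, reacted 20 min at 25 °C. Stopped with TCA, and 33P incorporation counted on glass fiber filters.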

A further assay addresses c-Met (Homo sapiens, UniProt P08581). The assay is described as follows: c-Met Inhibition Assay, coupled enzyme system. It is filed as biochemical. Particulars: enzyme inhibition data (Ki), Table 11. Put shortly:
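Pyruvate kinase/lactate dehydrogenase-coupled NADH assay in HEPES pH 7.5 with 80 nM c-Met, 200 μM ATP and 10 μM polyGluTyr at 30° C. Compound (0.006–12.5 μM final, 12-point) preincubated 10 min before ATP start; rates over 10 min gave Ki.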

Sequence of c-Met (P08581 25-1390): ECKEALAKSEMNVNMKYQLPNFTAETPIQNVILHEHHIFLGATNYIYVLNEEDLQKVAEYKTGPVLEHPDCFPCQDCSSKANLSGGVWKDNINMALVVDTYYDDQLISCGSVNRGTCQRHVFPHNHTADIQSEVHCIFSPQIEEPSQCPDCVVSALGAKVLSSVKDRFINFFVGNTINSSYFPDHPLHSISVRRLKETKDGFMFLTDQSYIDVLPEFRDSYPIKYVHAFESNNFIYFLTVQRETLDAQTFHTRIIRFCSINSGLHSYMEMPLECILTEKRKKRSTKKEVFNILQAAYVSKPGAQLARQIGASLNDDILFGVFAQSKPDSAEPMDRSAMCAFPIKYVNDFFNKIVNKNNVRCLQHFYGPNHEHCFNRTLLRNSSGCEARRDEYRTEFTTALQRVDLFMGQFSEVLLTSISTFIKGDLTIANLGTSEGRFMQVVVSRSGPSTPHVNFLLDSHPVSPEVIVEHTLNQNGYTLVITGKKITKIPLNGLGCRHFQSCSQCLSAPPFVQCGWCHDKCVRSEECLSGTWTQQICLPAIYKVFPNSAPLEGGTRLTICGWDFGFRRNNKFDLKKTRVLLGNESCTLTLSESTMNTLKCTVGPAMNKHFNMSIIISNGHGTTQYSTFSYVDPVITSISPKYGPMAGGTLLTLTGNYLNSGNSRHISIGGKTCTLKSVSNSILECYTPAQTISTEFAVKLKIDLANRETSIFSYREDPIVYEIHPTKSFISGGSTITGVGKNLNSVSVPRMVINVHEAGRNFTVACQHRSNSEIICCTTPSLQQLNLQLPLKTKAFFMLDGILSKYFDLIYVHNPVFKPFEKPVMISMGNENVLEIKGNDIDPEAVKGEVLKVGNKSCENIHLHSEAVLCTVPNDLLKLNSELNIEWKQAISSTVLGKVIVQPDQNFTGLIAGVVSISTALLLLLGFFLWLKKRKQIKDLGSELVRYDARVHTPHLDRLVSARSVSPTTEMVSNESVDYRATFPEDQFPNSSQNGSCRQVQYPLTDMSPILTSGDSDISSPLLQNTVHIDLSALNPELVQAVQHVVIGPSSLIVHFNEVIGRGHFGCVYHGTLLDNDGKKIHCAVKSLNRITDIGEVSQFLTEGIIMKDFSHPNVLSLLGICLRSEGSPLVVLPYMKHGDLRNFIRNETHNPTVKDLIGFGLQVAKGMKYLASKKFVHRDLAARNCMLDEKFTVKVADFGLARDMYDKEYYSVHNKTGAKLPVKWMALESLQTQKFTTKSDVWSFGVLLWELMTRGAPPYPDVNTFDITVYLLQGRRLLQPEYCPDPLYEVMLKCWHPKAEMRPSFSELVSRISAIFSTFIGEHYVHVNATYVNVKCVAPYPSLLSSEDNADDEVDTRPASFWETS

With `COc1ccccc1-c1cnc2c(-c3ccccn3)c(N)nn2c1` [Compound V-14], the Ki on JAK3 is greater than 5000 nM; at c-Met, 500 to 5000 nM.

`CS(=O)(=O)Nc1cccc(-c2cnc3c(-c4ccccn4)c(N)nn3c2)c1` [Compound V-18]: the Ki on JAK3 is greater than 5000 nM; on c-Met, less than 500 nM.

For `Nc1nn2cc(-c3ccc(C(=O)NC4CCCO4)cn3)cnc2c1-c1ccccn1` (stereo not drawn) [Compound V-96], the results for the Ki on JAK3 and at c-Met were greater than 5000 nM and less than 500 nM, respectively.

For the compound `CC(C)CN(C)C(=O)c1ccc(-c2cnc3c(-c4ccccn4)c(N)nn3c2)nc1` [Compound V-97], the Ki at JAK3 was 500 to 5000 nM; at c-Met, less than 500 nM.

In the case of `CCN(CC)C(=O)c1ccc(-c2cnc3c(-c4ccccn4)c(N)nn3c2)nc1` [Compound V-98], the Ki at JAK3 was 500 to 5000 nM; at c-Met, less than 500 nM.

Regarding `CN1CCC(N(C)C(=O)c2cccc(-c3cnc4c(-c5ccccn5)c(N)nn4c3)n2)CC1` [Compound V-101], the inhibitory constant (Ki) was greater than 5000 nM at JAK3 and less than 500 nM at c-Met.

With `CCN1CCN(C(=O)c2cccc(-c3cnc4c(-c5ccccn5)c(N)nn4c3)n2)CC1` [Compound V-102], the Ki at JAK3 is greater than 5000 nM; on c-Met it was less than 500 nM.

With `Nc1nn2cc(-c3cccc(C(=O)N4CCC(N)CC4)n3)cnc2c1-c1ccccn1` [Compound V-104], the Ki at JAK3 is greater than 5000 nM; on c-Met, less than 500 nM.

`C#CCN(C)C(=O)c1cccc(-c2cnc3c(-c4ccccn4)c(N)nn3c2)n1` [Compound V-106]: the Ki at JAK3 was greater than 5000 nM; on c-Met, less than 500 nM.

As for `Nc1nn2cc(-c3cccc(C(=O)N4CCCC4CO)n3)cnc2c1-c1ccccn1` (stereo not drawn) [Compound V-112], the Ki is greater than 5000 nM on JAK3 and less than 500 nM at c-Met.

`CN(CCC#N)C(=O)c1cccc(-c2cnc3c(-c4ccccn4)c(N)nn3c2)n1` [Compound V-114]: the Ki is greater than 5000 nM on JAK3 and less than 500 nM on c-Met.

For the compound `CCN(C)C(=O)c1cccc(-c2cnc3c(-c4ccccn4)c(N)nn3c2)n1` [Compound V-115], the Ki was greater than 5000 nM at JAK3 and less than 500 nM at c-Met.

Turning to `CCN(CCC#N)C(=O)c1cccc(-c2cnc3c(-c4ccccn4)c(N)nn3c2)n1` [Compound V-116], the Ki at JAK3 is greater than 5000 nM; at c-Met, less than 500 nM.

With `CCN(CC)CCN(C)C(=O)c1cccc(-c2cnc3c(-c4ccccn4)c(N)nn3c2)n1` [Compound V-124], the Ki on JAK3 is greater than 5000 nM; at c-Met, less than 500 nM.

On to `CCN(CC)C(=O)c1cccc(-c2cnc3c(-c4ccccn4)c(N)nn3c2)n1` [Compound V-127], for which the Ki on JAK3 is greater than 5000 nM; at c-Met, less than 500 nM.

As to `COCCCN1CCN(C(=O)c2ccc(-c3cnc4c(-c5ccccn5)c(N)nn4c3)nc2)CC1` [Compound V-129], the Ki at JAK3 was 500 to 5000 nM; on c-Met it was less than 500 nM.

In the case of `CN(CCCN)C(=O)c1ccc(-c2cnc3c(-c4ccccn4)c(N)nn3c2)nc1` [Compound V-130], the figures for the Ki at JAK3 and at c-Met were greater than 5000 nM and less than 500 nM, respectively.

For `Cc1ccc(-c2c(N)nn3cc(-c4ccncc4)cnc23)nc1` [Compound V-132], the Ki at JAK3 was greater than 5000 nM; at c-Met it was less than 500 nM.

Take `Cc1ccnc(-c2c(N)nn3cc(-c4ccncc4)cnc23)c1` [Compound V-133]: the Ki is 500 to 5000 nM on JAK3 and less than 500 nM at c-Met.

As for `Nc1nn2cc(-c3ccncc3)cnc2c1-c1ncccc1OCc1ccccc1` [Compound V-134], the results for the inhibitory constant (Ki) at JAK3 and at c-Met were greater than 5000 nM and 500 to 5000 nM, respectively.

For `Cc1cccnc1-c1c(N)nn2cc(-c3ccncc3)cnc12` [Compound V-135], the Ki on JAK3 is greater than 5000 nM; at c-Met, 500 to 5000 nM.

Take `COC(=O)C1CCCN1C(=O)c1cccc(-c2cnc3c(-c4ccccn4)c(N)nn3c2)n1` (stereo not drawn) [Compound V-139]: the Ki is greater than 5000 nM on JAK3 and less than 500 nM at c-Met.

As to `CC(C)N1CCN(c2ccc(-c3cnc4c(-c5ccccn5)c(N)nn4c3)cn2)CC1` [Compound V-146], the results for the Ki at JAK3 and at c-Met were greater than 5000 nM and less than 500 nM, respectively.

Regarding `Nc1nn2cc(-c3ccc(N4CCNCC4)nc3)cnc2c1-c1ccccn1` [Compound V-151], the Ki is greater than 5000 nM at JAK3 and less than 500 nM on c-Met.

Consider `Nc1nn2cc(-c3ccc(N4CCC[C@H]4CN4CCCC4)nc3)cnc2c1-c1ccccn1` [Compound V-152], for which the Ki on JAK3 is greater than 5000 nM; at c-Met, less than 500 nM.

In the case of `Nc1nn2cc(-c3cccc(C(=O)N4CCC[C@H]4CN4CCCC4)n3)cnc2c1-c1ccccn1` [Compound V-154], the Ki on JAK3 was greater than 5000 nM; on c-Met, less than 500 nM.

For `CN(CCCN)C(=O)c1cccc(-c2cnc3c(-c4ccccn4)c(N)nn3c2)n1` [Compound V-155], the Ki at JAK3 is 500 to 5000 nM; on c-Met, less than 500 nM.

Take `COCCNc1ccc(-c2cnc3c(-c4ccccn4)c(N)nn3c2)cn1` [Compound V-156]: the inhibitory constant (Ki) at JAK3 was greater than 5000 nM; on c-Met, less than 500 nM.

`CN(C)CCNc1ccc(-c2cnc3c(-c4ccccn4)c(N)nn3c2)cn1` [Compound V-159]: the Ki at JAK3 is 500 to 5000 nM; at c-Met, less than 500 nM.

For `CN1CCCN(c2ccc(-c3cnc4c(-c5ccccn5)c(N)nn4c3)cn2)CC1` [Compound V-160], the inhibition constant Ki at JAK3 was greater than 5000 nM; at c-Met it was less than 500 nM.

As to `Nc1nn2cc(-c3ccc(N4CCC(N)CC4)nc3)cnc2c1-c1ccccn1` [Compound V-165], the figures for the Ki at JAK3 and on c-Met were greater than 5000 nM and less than 500 nM, respectively.

For the compound `CCN1CCN(c2ccc(-c3cnc4c(-c5ccccn5)c(N)nn4c3)cn2)CC1` [Compound V-166], the Ki at JAK3 is greater than 5000 nM; at c-Met, less than 500 nM.

For `CCN(CC)CCN(C)c1ccc(-c2cnc3c(-c4ccccn4)c(N)nn3c2)cn1` [Compound V-173], the Ki at JAK3 was 500 to 5000 nM; on c-Met it was less than 500 nM.

For the compound `Nc1nn2cc(-c3cccc(C(=O)N4CCC[C@@H]4CN4CCCC4)n3)cnc2c1-c1ccccn1` [Compound V-175], the Ki on JAK3 was 500 to 5000 nM; at c-Met, less than 500 nM.

`Nc1nn2cc(-c3ccc(N4CCC[C@@H]4CN4CCCC4)nc3)cnc2c1-c1ccccn1` [Compound V-176]: the Ki was 500 to 5000 nM at JAK3 and less than 500 nM at c-Met.

With `Nc1nn2cc(-c3ccc(C(=O)N4CCC[C@H]4CN4CCCC4)cn3)cnc2c1-c1ccccn1` [Compound V-177], the Ki on JAK3 is 500 to 5000 nM; at c-Met it was less than 500 nM.

For `Cc1cccc(-c2c(N)nn3cc(-c4ccncc4)cnc23)n1` [Compound V-178], the Ki at JAK3 is greater than 5000 nM; at c-Met it was 500 to 5000 nM.

In the case of `Nc1nn2cc(-c3ccncc3)cnc2c1-c1cc(N2CCCCC2)ncn1` [Compound V-179], the inhibition constant (Ki) at JAK3 and at c-Met was less than 500 nM in each case.

For the compound `CCN(CC)c1cc(-c2c(N)nn3cc(-c4ccncc4)cnc23)ncn1` [Compound V-180], the Ki at JAK3 and at c-Met was less than 500 nM throughout.

As to `CNc1cc(-c2c(N)nn3cc(-c4ccncc4)cnc23)ncn1` [Compound V-181], the inhibitory constant (Ki) on JAK3 and at c-Met was less than 500 nM in each case.

`CC(C)Nc1cc(-c2c(N)nn3cc(-c4ccncc4)cnc23)ncn1` [Compound V-182]: the Ki at JAK3 and at c-Met was less than 500 nM in each case.

`Nc1nn2cc(-c3ccncc3)cnc2c1-c1cc(NC2CCCCC2)ncn1` [Compound V-183]: the Ki on JAK3 was 500 to 5000 nM; on c-Met, less than 500 nM.

As usually defined, the Ki is a dissociation constant, usually derived from enzyme kinetics or from competition with a known ligand. Low readings indicate higher affinity, high ones lower affinity.
